Results on 1 compound are retold here after paper PMC8998618, “A Pharmacokinetic and Metabolism Study of the TRPC6 Inhibitor SH045 in Mice by LC-MS/MS” (International Journal of Molecular Sciences, 2022).

The series is described as follows: time-dependent metabolization (stability) in HLM and IVIVE of hepatic clearance. The format is in vitro ADME, human. An excerpt:
In the widely used concept of the “well-stirred” model, liver represents a single uniform compartment. It is further assumed that the concentration of unbound SH045 leaving the liver is in equilibrium with its unbound concentration in hepatocytes (detailed calculation in Supplementary Materials SM8, summarized values in SR4). Briefly, microsomal intrinsic clearance was converted to hepatic clearance: CLhep = Q × fu × CLint/Q + (fu × CLint), where fu is the unbound fraction of SH045 in blood and Q is the hepatic blood flow in mice.
For this purpose, remaining concentrations of SH045 in microsomes were determined to calculate the intrinsic microsomal clearance CLint,micr, the intrinsic clearance CLint, equal to the maximum enzyme activity of liver and for in vitro-in vivo exploration of hepatic clearance CLhep in mouse and human using the well-stirred model. The algorithm for these calculations is given in detail in the Supplementary Materials SM8. […]
All microsome incubations were stopped with 1 mL ice -cold ACN containing 5 µg/mL IS, vortexed for 1 min and cooled at -20 °C for 10 min. […]
2 µL SH045 (final concentration 0.5 – 100 µM, in triplicate), 12.5 µL HLM or MLM (finally 0.5 mg/mL protein) and 460.5 µL DPBS were vortexed and preincubated 37 °C for 5 min. The reaction was initiated by addition of 25 µL analogously pre-incubated β-NADPH (finally: 1 mM). […]
Testosterone (10 µM in ACN/DPBS 2/3, v/v) instead of SH045 was used as positive control and analyzed by an appropriate HPLC method with UV detection.
Negative controls contained either no NADPH, no MLM or HLM or none of them. […]
Mean maximum rate vmax and Michaelis-Menten constant Km were calculated using Lineweaver-Burk transformation. From Km an appropriate drug concentration of 2 µM was derived as prerequisite for experimental in vitro determination of t1/2 required for further exploration of clearance.
For this purpose, microsomes were incubated as described above with 2 µM SH045 for indicated time intervals up to 30 min. The remaining concentrations of SH045 were determined to calculate the intrinsic microsomal clearance CLint,micr the intrinsic clearance CLint, equal to the maximum enzyme activity of liver and for in vitro-in vivo exploration of hepatic clearance CLhep in mouse and human using the “well-stirred” model [6].
SM7 Identification of metabolism pathways and metabolites of SH045 in MLM and HLM To determine possible metabolism pathways of SH045 in MLM and HLM, an in vitro inhibition approach was performed with CYP-isoform specific inhibitors (final concentration): ciprofloxacin (CYP1A2; 150 µM), pilocarpine (CYP2A6; 50 µM), ticlopidine (CYP2B6; 5 µM), quercetin (CYP2C8; 2 µM), sulfaphenazole (CYP2C9; 10 µM), fluvoxamine (CYP2C19; 10 µM), quinidine (CYP2D6; 10 µM), 4-methyl pyrazole (CYP2E1; 100 µM) and ketoconazole (CYP3A4; 1 µM) [7, 8]. The inhibitors were dissolved in DPBS and appropriate methanol, the organic solvents not […]
SH045 (2 µM) was pre-incubated with MLM or HLM (0.5 mg/mL) and the specific inhibitor for 5 min at 37 °C in DPBS.
Ticlopidine, a time-dependent inhibitor was pre-incubated for 15 min [9]. Incubations were performed in triplicate with NADPH (1 mM) in a final volume of 500 µL for 2 min and 10 min with pre-incubated MLM and HLM, respectively, terminated with 1 mL ice-cold ACN and processed as described above for LC-MS/MS. A sample without any inhibitor served as a positive control. […]

SMILES strings stand for the structures.

Regarding `C=C[C@@](C)(O)CC[C@H]1C(=C)C[C@H](OC(=O)NC)[C@H]2C(C)(C)CCC[C@]12C` [SH045, (1S,4S,4aR,8aS)-4-((S)-3-Hydroxy-3-methylpent-4-en-1-yl)-4a,8,8-trimethyl-3-methylenedecahydronaphthalen-1-yl methylcarbamate], where the note is “human, liver microsomes, scaled from CLint,micr”, the CLint scaled at 2 µM worked out at 334 mL/min/kg. Moreover, under “human, predicted by well-stirred model, Q 21 mL/min/kg”, the CLhep is on record as 0.96 mL/min/kg. This compound came in with a CLint (human, scaled from CLint,micr) of 334.6 mL/min/kg. For the same compound, where the note is “pH 7.4, human liver microsomes 0.5 mg/mL, 2 µM SH045, NADPH”, the half-life at 2 µM worked out at 4.85 min. In addition, the microsomal CLint at 2 µM (pH 7.4, human liver microsomes, read-out: CLint, micr) amounted to 286 µL/min/mg.

As a reminder, the CLint scaled is a measure of how fast metabolising enzymes remove a compound, apart from limits set by blood flow. One may read the half-life as the time needed for the level to fall by half in the phase considered.
